Measured values reported in the NIST ThermoML archive (doi:10.1016/j.jct.2004.11.001).

Conditions: Liquid; for speed of sound: non intrusive technique with two piezoelectric transducers based on the time of flight

[2H]C([2H])([2H])C(=O)C([2H])([2H])[2H] [(D6)-2-propanone]
Conditions | mass density [kg/m3] | speed of sound [m/s]
288.2 K, 100 kPa | – | 1110.6
288.2 K, 5020 kPa | – | 1140.7
288.2 K, 10060 kPa | – | 1168.2
288.2 K, 20010 kPa | – | 1218.6
288.2 K, 30090 kPa | – | 1264.4
288.2 K, 40050 kPa | – | 1302.9
288.2 K, 49940 kPa | – | 1345.4
288.2 K, 60000 kPa | – | 1382.2
288.2 K, 70020 kPa | – | 1417.2
288.2 K, 80060 kPa | – | 1450.1
288.2 K, 90030 kPa | – | 1481.9
288.2 K, 100110 kPa | – | 1512.5
288.2 K, 110100 kPa | – | 1540.4
288.2 K, 120100 kPa | – | 1568.3
288.2 K, 130120 kPa | – | 1595.5
288.2 K, 140000 kPa | – | 1620.6
288.2 K, 150150 kPa | – | 1640.3
288.2 K, 160030 kPa | – | 1664
298.15 K, 100 kPa | 868 | –
298.15 K, 5000 kPa | 873.51 | –
298.15 K, 9920 kPa | 878.81 | –
298.15 K, 14840 kPa | 883.83 | –
298.15 K, 19760 kPa | 888.58 | –
298.15 K, 24670 kPa | 893.11 | –
298.15 K, 29590 kPa | 897.46 | –
298.15 K, 34510 kPa | 901.62 | –
298.15 K, 39430 kPa | 905.63 | –
298.15 K, 44340 kPa | 909.51 | –
298.15 K, 49260 kPa | 913.26 | –
298.15 K, 54180 kPa | 916.86 | –
298.15 K, 59100 kPa | 920.33 | –
298.25 K, 100 kPa | – | 1071.6
298.25 K, 5080 kPa | – | 1103.4
298.25 K, 10170 kPa | – | 1131.8
298.25 K, 20270 kPa | – | 1183.7
298.25 K, 30000 kPa | – | 1229.6
298.25 K, 40010 kPa | – | 1272.1
298.25 K, 50020 kPa | – | 1312
298.25 K, 60450 kPa | – | 1350.7
298.25 K, 70020 kPa | – | 1383.8
298.25 K, 80010 kPa | – | 1416.9
298.25 K, 90200 kPa | – | 1443.5
298.25 K, 100040 kPa | – | 1478.7
298.25 K, 110070 kPa | – | 1507.6
298.25 K, 120040 kPa | – | 1535.4
298.25 K, 130020 kPa | – | 1561.1
298.25 K, 140020 kPa | – | 1586.5
298.25 K, 150120 kPa | – | 1611.2
298.25 K, 159970 kPa | – | 1634.8
303.16 K, 100 kPa | 861.61 | –
303.16 K, 5000 kPa | 867.3 | –
303.16 K, 9920 kPa | 872.78 | –
303.16 K, 14840 kPa | 877.94 | –
303.16 K, 19760 kPa | 882.84 | –
303.16 K, 24670 kPa | 887.5 | –
303.16 K, 29590 kPa | 891.96 | –
303.16 K, 34510 kPa | 896.23 | –
303.16 K, 39430 kPa | 900.35 | –
303.16 K, 44340 kPa | 904.3 | –
303.16 K, 49260 kPa | 908.1 | –
303.16 K, 54180 kPa | 911.79 | –
303.16 K, 59100 kPa | 915.34 | –
308.2 K, 100 kPa | 855.39 | –
308.2 K, 5000 kPa | 861.42 | –
308.2 K, 9920 kPa | 867.11 | –
308.2 K, 14840 kPa | 872.49 | –
308.2 K, 19760 kPa | 877.58 | –
308.2 K, 24670 kPa | 882.42 | –
308.2 K, 29590 kPa | 887.02 | –
308.2 K, 34510 kPa | 891.38 | –
308.2 K, 39430 kPa | 895.65 | –
308.2 K, 44340 kPa | 899.72 | –
308.2 K, 49260 kPa | 903.62 | –
308.2 K, 54180 kPa | 907.33 | –
308.2 K, 59100 kPa | 910.94 | –
308.22 K, 100 kPa | – | 1033.3
308.22 K, 5040 kPa | – | 1063.2
308.22 K, 10000 kPa | – | 1093.5
308.22 K, 20090 kPa | – | 1147.9
308.22 K, 29990 kPa | – | 1196.3
308.22 K, 40040 kPa | – | 1240.8
308.22 K, 50090 kPa | – | 1281.7
308.22 K, 60060 kPa | – | 1319.5
308.22 K, 70070 kPa | – | 1355
308.22 K, 80090 kPa | – | 1388.6
308.22 K, 89970 kPa | – | 1420.3
308.22 K, 100070 kPa | – | 1450.8
308.22 K, 110070 kPa | – | 1479.7
308.22 K, 120060 kPa | – | 1507.5
308.22 K, 130120 kPa | – | 1534.3
308.22 K, 140080 kPa | – | 1559.4
308.22 K, 150120 kPa | – | 1584
308.22 K, 160000 kPa | – | 1607.2
313.21 K, 100 kPa | 848.68 | –
313.21 K, 5000 kPa | 855 | –
313.21 K, 9920 kPa | 860.92 | –
313.21 K, 14840 kPa | 866.48 | –
313.21 K, 19760 kPa | 871.75 | –
313.21 K, 24670 kPa | 876.72 | –
313.21 K, 29590 kPa | 881.49 | –
313.21 K, 34510 kPa | 886.02 | –
313.21 K, 39430 kPa | 890.35 | –
313.21 K, 44340 kPa | 894.51 | –
313.21 K, 49260 kPa | 898.52 | –
313.21 K, 54180 kPa | 902.37 | –
313.21 K, 59100 kPa | 906.07 | –
318.11 K, 100 kPa | 842.15 | –
318.11 K, 5000 kPa | 848.68 | –
318.11 K, 9920 kPa | 854.81 | –
318.11 K, 14840 kPa | 860.56 | –
318.11 K, 19760 kPa | 865.99 | –
318.11 K, 24670 kPa | 871.14 | –
318.11 K, 29590 kPa | 876.06 | –
318.11 K, 34510 kPa | 880.71 | –
318.11 K, 39430 kPa | 885.18 | –
318.11 K, 44340 kPa | 889.44 | –
318.11 K, 49260 kPa | 893.55 | –
318.11 K, 54180 kPa | 897.49 | –
318.11 K, 59100 kPa | 901.28 | –
318.22 K, 100 kPa | – | 991.2
318.22 K, 4980 kPa | – | 1022.9
318.22 K, 10070 kPa | – | 1053.8
318.22 K, 19990 kPa | – | 1109.8
318.22 K, 30040 kPa | – | 1161.1
318.22 K, 40070 kPa | – | 1207.9
318.22 K, 50060 kPa | – | 1250.3
318.22 K, 60010 kPa | – | 1289.3
318.22 K, 70120 kPa | – | 1326.3
318.22 K, 80030 kPa | – | 1360.3
318.22 K, 90090 kPa | – | 1393
318.22 K, 100300 kPa | – | 1424.8
318.22 K, 110120 kPa | – | 1453.2
318.22 K, 120030 kPa | – | 1481
318.22 K, 129970 kPa | – | 1507.9
318.22 K, 140110 kPa | – | 1534.2
318.22 K, 150060 kPa | – | 1558.7
318.22 K, 160060 kPa | – | 1582.6
323.12 K, 100 kPa | 835.37 | –
323.12 K, 5000 kPa | 842.13 | –
323.12 K, 9920 kPa | 848.49 | –
323.12 K, 14840 kPa | 854.44 | –
323.12 K, 19760 kPa | 860.07 | –
323.12 K, 24670 kPa | 865.35 | –
323.12 K, 29590 kPa | 870.38 | –
323.12 K, 34510 kPa | 875.18 | –
323.12 K, 39430 kPa | 879.78 | –
323.12 K, 44340 kPa | 884.16 | –
323.12 K, 49260 kPa | 888.38 | –
323.12 K, 54180 kPa | 892.45 | –
323.12 K, 59100 kPa | 896.36 | –
328 K, 100 kPa | 828.68 | –
328 K, 5000 kPa | 835.72 | –
328 K, 9920 kPa | 842.33 | –
328 K, 14840 kPa | 848.48 | –
328 K, 19760 kPa | 854.24 | –
328 K, 24670 kPa | 859.71 | –
328 K, 29590 kPa | 864.88 | –
328 K, 34510 kPa | 869.82 | –
328 K, 39430 kPa | 874.55 | –
328 K, 44340 kPa | 879.05 | –
328 K, 49260 kPa | 883.39 | –
328 K, 54180 kPa | 887.57 | –
328 K, 59100 kPa | 891.6 | –
328.68 K, 100 kPa | – | 941.9
328.68 K, 5090 kPa | – | 977.6
328.68 K, 10030 kPa | – | 1009.5
328.68 K, 20070 kPa | – | 1068.8
328.68 K, 30010 kPa | – | 1121.9
328.68 K, 40010 kPa | – | 1171.1
328.68 K, 50070 kPa | – | 1215.9
328.68 K, 60000 kPa | – | 1256.7
328.68 K, 70030 kPa | – | 1294.8
328.68 K, 80090 kPa | – | 1330.4
328.68 K, 90100 kPa | – | 1364
328.68 K, 100060 kPa | – | 1396.1
328.68 K, 110140 kPa | – | 1426.4
328.68 K, 120100 kPa | – | 1454.7
328.68 K, 130000 kPa | – | 1481.9
328.68 K, 140020 kPa | – | 1508.4
328.68 K, 150040 kPa | – | 1533.8
328.68 K, 160100 kPa | – | 1557.9
332.91 K, 5000 kPa | 829.26 | –
332.91 K, 9920 kPa | 836.08 | –
332.91 K, 14840 kPa | 842.42 | –
332.91 K, 19760 kPa | 848.36 | –
332.91 K, 24670 kPa | 853.96 | –
332.91 K, 29590 kPa | 859.28 | –
332.91 K, 34510 kPa | 864.37 | –
332.91 K, 39430 kPa | 869.21 | –
332.91 K, 44340 kPa | 873.86 | –
332.91 K, 49260 kPa | 878.33 | –
332.91 K, 54180 kPa | 882.64 | –
332.91 K, 59100 kPa | 886.8 | –
338.72 K, 100 kPa | – | 888.6
338.72 K, 5050 kPa | – | 927.2
338.72 K, 10020 kPa | – | 962.5
338.72 K, 20030 kPa | – | 1025.1
338.72 K, 30050 kPa | – | 1081.4
338.72 K, 40010 kPa | – | 1132.6
338.72 K, 49990 kPa | – | 1179.8
338.72 K, 60050 kPa | – | 1223.2
338.72 K, 70040 kPa | – | 1262.8
338.72 K, 79970 kPa | – | 1299.3
338.72 K, 90070 kPa | – | 1334.7
338.72 K, 100040 kPa | – | 1367.5
338.72 K, 110020 kPa | – | 1398.5
338.72 K, 119960 kPa | – | 1428.5
338.72 K, 130000 kPa | – | 1456.6
338.72 K, 140080 kPa | – | 1484.3
338.72 K, 150050 kPa | – | 1510.5
338.72 K, 159910 kPa | – | 1535.5
